These results are taken from patent publication EP3964221A1, “ANTIVIRAL AGENTS” (priority 2020, dated 2022).

Like-named read-outs stand apart in the source and are kept apart here.

One experiment deals with Herpes simplex. The settings on record: added to the assays after infection; cited from earlier work.
For experiment [1], the system named is Influenza A virus (Flu A, H1N1). Description: Curative approach, plaque reduction assay. It is filed as cell-based. Background: Plaques are areas of infected cells; plaque reduction assays count them against a control.
Experiment [2] deals with Rhinovirus (RV, subtype 14). Put plainly: Curative approach, plaque reduction assay. It is filed as cell-based. The conditions noted are these: active control at concentrations between 5-50 µg mL^-1.
The test system of experiment [3] is Respiratory Syncytial Virus (RSV, type long strain). Description: Curative approach, plaque reduction assay. It is filed as cell-based. The conditions noted are these: active control at concentrations between 5-50 µg mL^-1.
The subject of experiment [4] is Influenza A virus (Flu A, H1N1). Description: Virucidal (preventive) approach, pretreatment of cell-free virus, plaque forming units. It is filed as cell-based. The settings on record: positive control at 0.3%; 2 and 24 h incubation.
The test system of experiment [5] is Rhinovirus (RV, subtype 14). Described as above. It is filed as cell-based. The conditions noted are these: positive control at 0.3%; 2 and 24 h incubation.
Experiment [6] deals with Respiratory Syncytial Virus (RSV, type long strain). The description is as above. The settings on record: positive control at 0.3%; 2 and 24 h incubation. It is filed as cell-based.
The test system of experiment [7] is Adenovirus C (AV, subtype 5). It is filed as cell-based. The conditions noted are these: positive control at 0.3%.

Take `CC12CCC(CC1)C(C)(C)O2` [1,8-cineol]: in the experiment on Herpes simplex, the “reduction of Herpes simplex induced plaques” value (from here on “reduction”) was 30-40%.
For the compound `NC(=O)c1ncn([C@@H]2O[C@H](CO)[C@@H](O)[C@H]2O)n1` [Ribavirin, ribavirin], the “plaque formation (visual, Fig. 3)” value in experiment [1] (active control) was “prevented plaque formation almost completely”. The inhibited plaque formation in experiment [1] (active control at concentrations between 5-50 µg mL^-1), in experiment [2] and in experiment [3] was 70-96% throughout.
Take `CCCCCCCCCCCCOS(=O)(=O)[O-].[Na+]` [SDS, Sodium dodecyl sulfate]: the lowered infectivity in experiment [4] is listed as 56-100%; in experiment [5], 56-100%; in experiment [6], 56-100%; in experiment [7] (2 h incubation), 52%; in experiment [7] (24 h incubation), 63%.
In the case of `Nc1nc2c(ncn2COCCO)c(=O)[nH]1` [acyclovir], the “reduction” value in the experiment on Herpes simplex was 100%.
Take `C=C(C)[C@H]1CC=C(C)CC1` [limonene]: the “reduction” value in the experiment on Herpes simplex was 10-20%.
For the compound `CC1=CCC2CC1C2(C)C` (stereo not drawn) [α-pinene], the “reduction” value in the experiment with Herpes simplex is reported as 30-40%.
As for `C=C1CCC2CC1C2(C)C` (stereo not drawn) [β-pinene], in the experiment with Herpes simplex, the “reduction” value is given as 10-20%.
